Measured values taken from PMC11073428, “The activity of pyrazolo[4,3-e][1,2,4]triazine and pyrazolo[4,3-e]tetrazolo[1,5-b][1,2,4]triazine sulphonamide derivatives in monolayer and spheroid breast cancer cell cultures” (Journal of Enzyme Inhibition and Medicinal Chemistry, 2024).

Experiments:
[1] = tested on: caspase 3/7 in MCF-7 cells; test: Activity of caspase 3/7, MCF-7; assay type: cell-based, human; conditions: MCF-7, 24 h; cell line does not express caspase 3
Description: (§1) MCF-7 and MDA-MB-231 cells were plated in six-well plates at density 1 × 10^6 and cultured in DMEM for 24 h. […] Then to identify the involvement of caspase family in inducing apoptosis, cells were pre-treated with Z-VAD-FMK (100 µM) 2 h before adding compounds[28]. The activation of caspases 9, 10, and 3/7 was detected as described before.

[2] = tested on: MDA-MB-231 breast cancer cells; test: MTT viability assay, MDA-MB-231
Description: Following 24-h incubation with tested compounds, the medium was discarded from the cell cultures. Then, into each well with cells was added 1 mL of PBS and 50 µL of MTT solution (5 mg per mL). Cells were incubated at 37 °C and 5% CO2 in humidified atmosphere for a defined time appropriate for each cell line. After incubation, the solution above the cells was removed and obtained purple formazan crystals were dissolved in 1 mL DMSO. The absorbance was read at OD = 570 nm on Evolution 201 Spectrophotometer (Thermo Scientific, Waltham, MA).

[3] = tested on: caspase 3/7 in MDA-MB-231 cells; test: Activity of caspase 3/7, MDA-MB-231; assay type: cell-based, human; conditions: 24 h
Description: as §1

ROS in MDA-MB-231 cells = test: Total ROS activity, flow cytometry, MDA-MB-231; assay type: cell-based, human; conditions: for cells with ROS: 24 h
Description: In brief, cells were washed two times with cold PBS solution and incubated in a solution of ROS Green dye in Assay Buffer and incubated for 1 h in optimal cell growth parameters, protected from light. After incubation, cells were washed with assay buffer. Subsequently, fluorescence emission intensities at 490 nm excitation and 520 nm emission were recorded in 500 μL assay buffer using flow cytometer BD FACSCanto II flow cytometer and FACSDiva software (BD Biosciences Systems, San Jose, CA).

[4] = tested on: MCF-7 breast cancer cells; test: Apoptosis, annexin V-FITC/PI flow cytometry, MCF-7; assay type: cell-based, human; conditions: 24 h
Description: The analysis was performed using flow cytometry Apoptosis Detection Kit II (BD Biosciences, San Diego, CA) as described previously.

Bax in MCF-7 cells = test: Anti-Bax antibody flow cytometry, MCF-7; assay type: cell-based, human; conditions: 24 h
Description: (§2) To evaluate the molecular mechanism of induction of apoptosis of tested compounds, the level of p53, NF-κB, mTOR, Bax, and beclin-1 was measured using appropriate antibody according to the manufacturer’s instruction. In brief, tryspinised cells were centrifuged, then supernatant was discarded, and cells were suspended in 4% FA (formaldehyde). Prepared samples were incubated 15 min at RT. Following incubation, the 2.5 mL PBS was added to each sample and centrifuged. Then, supernatant was discarded, and cells were resuspended in 90% ice-cold methanol to perform permeabilisation and left for 1 h in ice. To remove methanol, cells were rinsed with excess PBS by centrifugation. Following centrifugation, the supernatant was discarded. Then, cells were resuspended in 100 µL of appropriate diluted (1:100 in PBS) antibody conjugate (p53 (7F5) Rabbit mAb – Alexa Fluor 488 Conjugate #5429 Cell Signalling Technology, Danvers, MA; NF-κB p65 (D14E12) XP Rabbit mAb – Alexa Fluor 647 Conjugate #8801 Cell Signalling Technology, Danvers, MA; mTOR (7C10) Rabbit mAB – Alexa Fluor 647 #5048 Cell Signalling Technology, Danvers, MA; FITC Anti-Bax antibody (T22-A) #ab139543, Abcam, Cambridge, UK) and incubated 1 h in the dark at RT. Afterwards, cells were washed by centrifugation in 2 mL of incubation buffer. Finally, supernatant was removed and 300 µL PBS was added to each sample and pipetted. The analysis was performed by flow cytometry (BD FACSCanto II, Becton Dickinson Biosciences Systems, San Jose, CA) using FACSDiva software ver. 6.1.3.

[5] = tested on: MDA-MB-231 breast cancer cells; test: Autophagy Assay, Red, flow cytometry, MDA-MB-231; assay type: cell-based, human
Description: The effect of novel compound 3b at 0.25 µM and 0.5 µM concentration on the induction of autophagy in MCF-7 and MDA-MB-231 pre-treated 1 h with or not autophagy inhibitor 3-MA for 1 h (3-methyladenine, Sigma-Aldrich, St. Louis, MO) at 1 mM concentration[29] was assessed by ICT’s Autophagy Assay, Red using a flow cytometer. The test was performed as previously. Briefly, cells were washed with PBS and suspended in 490 µL of PBS. To each probe, 10 µL of diluted Autophagy Probe, Red solution was added. Prepared samples were incubated at 37 °C for 60 min. Following incubation, cells were suspended in diluted cellular assay buffer and centrifuged. Then, supernatant was removed, and cells were resuspended in diluted cellular assay buffer and centrifuged again. This step was repeated three times. Finally, cell pellet was resuspended in 0.5 mL of diluted cellular assay buffer. The analysis was performed with a flow cytometer (excitation/emission 590 nm/620 nm).

MDA-MB-231 spheroids = test: 3D spheroid culture, MDA-MB-231; assay type: cell-based, human; conditions: 0.25 µM and 0.5 µM
Description: (§3) The 3D cell culture was carried out with 6-Well Bio-Assembler Kit in accordance with the manufacturer’s instructions (Greiner Bio-One GmbH, Frickenhausen, Germany). First, MCF-7 and MDA-MB-231 were cultured in 2D using procedure and supplied to 80% confluency and treated with nanoshuttle at concentration of 1 µL/10 000 cell and incubated overnight. Following incubation, the medium was removed, and the cells were detached by trypsin–EDTA solution and resuspended in DMEM. The cells were counted using Scepter 2.0 Handheld Automated Cell Counter (Merck, Darmstadt, Germany) and plated at the concentration 1 × 10^6 cells per well in six-well plate. Then, cells were gently tilted in the flask to evenly distribute the nanoparticle and incubated (37 °C, 5% CO2, 95–98% humidity) for 1 h with magnet on the top of the plate. The cells self-assemble to spheroids. The obtained 3D cell culture was incubated until analysis.
(§4) The visualisation of the morphological changes in 3D cell culture of MCF-7 and MDA-MB-231 was evaluated using microscope (Nikon Eclipse Ti, Tokyo, Japan).
(§5) The mean ± standard deviation (SD) for all data is presented. One-way and two-way analysis of variance (ANOVA) was conducted followed by Dunnett’s test. GraphPad 8.0.1 Prism software (GraphPad Software, San Diego, CA) was used for calculation. The analysis of spheroids area was carried out using ImageJ software from the NIH (Bethesda, MD).

mTOR in MCF-7 cells = test: Anti-mTOR antibody flow cytometry, MCF-7; assay type: cell-based, human; conditions: MCF-7, 0.25 µM and 0.5 µM, 24 h
Description: as §2, with “The analysis was performed by flow cytometry (BD FACSCanto II, Becton Dickinson Biosciences Systems, San Jose, CA) using FACSDiva software ver. 6.1.3.” left out

MCF-7 spheroids = test: 3D spheroid culture, MCF-7; assay type: cell-based, human
Description: as §3, §4, §5

[6] = tested on: NF-κB in MDA-MB-231 cells; test: Anti-NF-κB antibody flow cytometry, MDA-MB-231; assay type: cell-based, human; conditions: 24 h
Description: as §2, with “The analysis was performed by flow cytometry (BD FACSCanto II, Becton Dickinson Biosciences Systems, San Jose, CA) using FACSDiva software ver. 6.1.3.” left out

[7] = tested on: caspase 10 in MCF-7 cells; test: Activity of caspase 10, MCF-7; assay type: cell-based, human; conditions: 24 h
Description: as §1

Cc1nn(-c2ccc(S(=O)(=O)N[C@@H](CO)Cc3ccccc3)cc2)c2nn3nnnc3nc12 [Compound 3b, (R)-N-(1-hydroxy-3-phenylpropan-2-yl)-4-(7-methyl-5H-pyrazolo[4,3-e]tetrazolo[1,5-b][1,2,4]triazin-6-yl)benzenesulfonamide]
effect on executive caspase 7 (in words) [1]: increase in activity of executive caspase 7
IC50 ([2]; Homo sapiens, MDA-MB-231, 24 h, read-out: Cytotoxicity IC50 MDA-MB-231): 310 ± 140 nM
times stronger than the corresponding sulphonyl derivative (2a or 2b), MDA-MB-231 ([2]; ratio of cytotoxicity, 3a vs 2a, 3b vs 2b): 25 times
cells with active executive caspases (3 and 7) ([3]; MDA-MB-231, 0.25 µM): 23.8 ± 0.8%
cells with active executive caspases (3 and 7) ([3]; MDA-MB-231, 0.5 µM): 68.4 ± 1.2%
cells with ROS (ROS in MDA-MB-231 cells; MDA-MB-231, 0.25 µM): 7.0 ± 0.6%
increase of ROS level compared to control (ROS in MDA-MB-231 cells; MDA-MB-231, 0.5 µM): four
cells with ROS (ROS in MDA-MB-231 cells; MDA-MB-231, 0.5 µM): 9.4 ± 0.7%
apoptotic cells ([4]; MCF-7, 0.25 µM): 50.6 ± 3.5%
early and late apoptotic cells ([4]; MCF-7, 0.5 µM): 98.9 ± 1.6%
cells with active Bax (Bax in MCF-7 cells; MCF-7, 0.25 µM): 46.4 ± 6.6%
cells with active Bax (Bax in MCF-7 cells; MCF-7, higher concentration (0.5 µM)): 63.0 ± 1.6%
autophagic cells (rate of autophagosomes) ([5]; MDA-MB-231, 0.5 µM, 24 h): 47.1 ± 0.6%
autophagic cells in presence of 3-MA ([5]; MDA-MB-231, 3b 0.5 µM + 3-MA (1 mM, 1 h pre-treatment)): 25.9 ± 4.7%
effect on spheroid formation (in words) (MDA-MB-231 spheroids): slower formation of spheroids compared to untreated cells
effect on cells with active mTOR (in words) (mTOR in MCF-7 cells): decrease in the number of cells with active mTOR
effect on spheroid formation (in words) (MCF-7 spheroids; 0.25 µM and 0.5 µM): slower formation of spheroids compared to untreated cells
spheroids smaller compared to the control (MCF-7 spheroids; 0.5 µM, 24 h): approximately 86.37 ± 7.7%
cells with active NF-κB ([6]; MDA-MB-231, 0.25 µM): 94.8 ± 0.6%
cells with active NF-κB ([6]; MDA-MB-231, 0.5 µM): 89.6 ± 4.1%
cells with active caspase 10 ([7]; MCF-7, 0.25 µM): 12.9 ± 0.8%
cells with active caspase 10 ([7]; MCF-7, 0.5 µM): 70.8 ± 1.1%
